Mutagenic call data for 3 molecules are collected here from PubChem BioAssay AID1259407 (Chemical Carcinogenesis Research Information System (CCRIS), 2018).

Calls of active or inactive are those of the source. How the calls were made is not given here.

In this data set the test system is CCRIS mutagenicity, Ames/micronucleus/aberration tests. The experiment in a line: CCRIS mutagenicity studies. Conditions: Test System: AMES SALMONELLA TYPHIMURIUM
Where [1] appears, read: Strain/Indicator: TA98, Metabolic Activation: NONE, Method: PREINCUBATION
The mark [2] stands for this setting: Strain/Indicator: TA100, Metabolic Activation: NONE, Method: PREINCUBATION

For the molecule `Nc1ncnc2c1ncn2Cc1ccc([N+](=O)[O-])cc1`, the mutagenic call runs as follows: (Strain/Indicator: TA98(1,8-DNP), Metabolic Activation: NONE, Method: PREINCUBATION) “inactive; negative”; (Strain/Indicator: TA98(1,8-DNP), Metabolic Activation: RAT, LIVER, S-9, PCB, Method: PREINCUBATION) “inactive; negative”; (Strain/Indicator: TA98(NR), Metabolic Activation: NONE, Method: PREINCUBATION) “inactive; negative”; (Strain/Indicator: TA98(NR), Metabolic Activation: RAT, LIVER, S-9, PCB, Method: PREINCUBATION) “inactive; negative”; under setting [1], “inactive; negative”; (Strain/Indicator: TA98, Metabolic Activation: RAT, LIVER, S-9, PCB, Method: PREINCUBATION) “inactive; negative”. Further, the mutagenic call reads like this: (Strain/Indicator: TA100(1,8-DNP), Metabolic Activation: NONE, Method: PREINCUBATION) “inactive; negative”; (Strain/Indicator: TA100(1,8-DNP), Metabolic Activation: RAT, LIVER, S-9, PCB, Method: PREINCUBATION) “inactive; negative”; (Strain/Indicator: TA100(NR), Metabolic Activation: NONE, Method: PREINCUBATION) “inactive; negative”; (Strain/Indicator: TA100(NR), Metabolic Activation: RAT, LIVER, S-9, PCB, Method: PREINCUBATION) “inactive; negative”; under setting [2], “inactive; negative”; (Strain/Indicator: TA100, Metabolic Activation: RAT, LIVER, S-9, PCB, Method: PREINCUBATION) “inactive; negative”. Further, the mutagenic call by setting is: (Strain/Indicator: YG1020, Metabolic Activation: NONE, Method: PREINCUBATION) “inactive; negative”; (Strain/Indicator: YG1020, Metabolic Activation: RAT, LIVER, S-9, PCB, Method: PREINCUBATION) “inactive; negative”; (Strain/Indicator: YG1021, Metabolic Activation: NONE, Method: PREINCUBATION) “active; positive”; (Strain/Indicator: YG1024, Metabolic Activation: NONE, Method: PREINCUBATION) “inactive; negative”; (Strain/Indicator: YG1024, Metabolic Activation: RAT, LIVER, S-9, PCB, Method: PREINCUBATION) “inactive; negative”; (Strain/Indicator: YG1025, Metabolic Activation: NONE, Method: PREINCUBATION) “inactive; negative”. Moreover, the mutagenic call (Strain/Indicator: YG1025, Metabolic Activation: RAT, LIVER, S-9, PCB, Method: PREINCUBATION) was “inactive; negative”; the mutagenic call (Strain/Indicator: YG1026, Metabolic Activation: NONE, Method: PREINCUBATION) was “inactive; negative”; the mutagenic call (Strain/Indicator: YG1026, Metabolic Activation: RAT, LIVER, S-9, PCB, Method: PREINCUBATION) was “inactive; negative”; the mutagenic call (Strain/Indicator: YG1029, Metabolic Activation: NONE, Method: PREINCUBATION) is “inactive; negative”; the mutagenic call (Strain/Indicator: YG1029, Metabolic Activation: RAT, LIVER, S-9, PCB, Method: PREINCUBATION) is “inactive; negative”.

Regarding `COc1cccc2c1cc1c3c(cc4c(c32)OCO4)C(=O)N1`, the mutagenic call by setting is: (Strain/Indicator: D3052, Metabolic Activation: NONE, Method: STANDARD PLATE) “inactive; negative”; (Strain/Indicator: D3052, Metabolic Activation: RAT, LIVER, S-9, PHENOBARBITAL, Method: STANDARD PLATE) “inactive; negative”; (Strain/Indicator: G46, Metabolic Activation: NONE, Method: STANDARD PLATE) “inactive; negative”; (Strain/Indicator: G46, Metabolic Activation: RAT, LIVER, S-9, PHENOBARBITAL, Method: STANDARD PLATE) “inactive; negative”; (Strain/Indicator: TA98, Metabolic Activation: NONE, Method: STANDARD PLATE) “inactive; negative”; (Strain/Indicator: TA98, Metabolic Activation: RAT, LIVER, S-9, PHENOBARBITAL, Method: STANDARD PLATE) “inactive; negative”. Moreover, the mutagenic call is “inactive; negative” (Strain/Indicator: TA100, Metabolic Activation: NONE, Method: STANDARD PLATE); “active; positive” (Strain/Indicator: TA100, Metabolic Activation: RAT, LIVER, S-9, AROCLOR 1254, Method: STANDARD PLATE); “inactive; negative” (Strain/Indicator: TA100, Metabolic Activation: RAT, LIVER, S-9, PHENOBARBITAL, Method: STANDARD PLATE); “inactive; negative” (Strain/Indicator: TA1535, Metabolic Activation: NONE, Method: STANDARD PLATE); “inactive; negative” (Strain/Indicator: TA1535, Metabolic Activation: RAT, LIVER, S-9, PHENOBARBITAL, Method: STANDARD PLATE); “inactive; negative” (Strain/Indicator: TA1537, Metabolic Activation: NONE, Method: STANDARD PLATE). The mutagenic call was “active; positive” (Strain/Indicator: TA1537, Metabolic Activation: RAT, LIVER, S-9, AROCLOR 1254, Method: STANDARD PLATE); “inactive; negative” (Strain/Indicator: TA1978, Metabolic Activation: NONE, Method: STANDARD PLATE); “inactive; negative” (Strain/Indicator: TA1978, Metabolic Activation: RAT, LIVER, S-9, PHENOBARBITAL, Method: STANDARD PLATE); “inactive; negative” (Strain/Indicator: TM677/8-AZAGUANINE, Metabolic Activation: NONE, Method: SUSPENSION/PLATE).

As to `CCCCOC(=O)c1ccccc1N`, the mutagenic call (Strain/Indicator: TA98, Metabolic Activation: HAMSTER, LIVER, S-9, AROCLOR 1254 (10%), Method: PREINCUBATION) is “inactive; negative”; the mutagenic call under setting [1] was “inactive; negative”; the mutagenic call (Strain/Indicator: TA98, Metabolic Activation: RAT, LIVER, S-9, AROCLOR 1254 (10%), Method: PREINCUBATION) was “inactive; negative”; the mutagenic call (Strain/Indicator: TA100, Metabolic Activation: HAMSTER, LIVER, S-9, AROCLOR 1254 (10%), Method: PREINCUBATION) was “inactive; negative”; the mutagenic call under setting [2] was “inactive; negative”; the mutagenic call (Strain/Indicator: TA100, Metabolic Activation: RAT, LIVER, S-9, AROCLOR 1254 (10%), Method: PREINCUBATION) was “inactive; negative”. Moreover, the mutagenic call runs as follows: (Strain/Indicator: TA1535, Metabolic Activation: HAMSTER, LIVER, S-9, AROCLOR 1254 (10%), Method: PREINCUBATION) “inactive; negative”; (Strain/Indicator: TA1535, Metabolic Activation: NONE, Method: PREINCUBATION) “inactive; negative”; (Strain/Indicator: TA1535, Metabolic Activation: RAT, LIVER, S-9, AROCLOR 1254 (10%), Method: PREINCUBATION) “inactive; negative”; (Strain/Indicator: TA1537, Metabolic Activation: HAMSTER, LIVER, S-9, AROCLOR 1254 (10%), Method: PREINCUBATION) “inactive; negative”; (Strain/Indicator: TA1537, Metabolic Activation: NONE, Method: PREINCUBATION) “inactive; negative”; (Strain/Indicator: TA1537, Metabolic Activation: RAT, LIVER, S-9, AROCLOR 1254 (10%), Method: PREINCUBATION) “inactive; negative”.
